Laboratory results from US20220087990A1, “APPLICATION OF RIFAMYCIN-QUINOLIZIDONE CONJUGATE MOLECULE AND PHARMACEUTICALLY ACCEPTABLE SALT THEREOF” (priority 2019, published 2022).
≈ marks a conversion by molar mass, not a printed value. Where two headings read alike, the source gives them in different places.

Key:
Format in all cases: cell-based
[1] = tested on: methicillin-resistant Staphylococcus aureus (MRSA) isolates; experiment: MIC measured by agar dilution method (CLSI); conditions: Staphylococcus aureus, MRSA, agar dilution
Description: (§1) Spontaneous mutation and minimal inhibit concentration (MIC) tested by agar dilution method, the above compounds are respectively prepared into a stock solution (100X) with a concentration 100 times the highest final concentration in corresponding solvents and used on the same day. Before use, I is further diluted with DMSO; and oxacillin, rifampicin and levofloxacin are further diluted with water.
(§2) Bacterial isolates: Staphylococcus aureus isolates are retrieved from the −80° C. storage room of Micromyx Culture Collection, thawed, plated onto Tryptic Soy Agar+5% sheep blood (Remel; Lenexa, Kans.), and then incubated aerobically at 35° C. overnight. S. aureus ATCC 29213 (MRSA; MMX 0100) was included during testing only for the purpose of quality control. Test Media: The isolates were tested in both the agar dilution MIC assay and the spontaneous mutation assay using Mueller-Hinton Agar (MHA; BD/BBL; Lot No. 6229829 & 4216798). Inocula of each isolate were suspended in cation-adjusted Mueller-Hinton Broth (CAMHB) (BD/BBL; Lot Nos. 5257869 & 6258541). Sodium chloride (Sigma-Aldrich; Lot No. SLBL0434V) was added to CAMHB at a final concentration of 2% when testing oxacillin. Dilutions of bacterial cell suspensions for the purpose of performing colony counts were also made in CAMHB.
(§3) MIC measured by agar dilution method: according to the recommendation from the Clinical and Laboratory Standards Institute (CLSI), the MIC value is measured by the agar dilution method. […] Each test agent was combined with molten MHA agar (50-55° C.) at a ratio of 0.2 mL of 100× test agent to 19.8 mL agar in a sterile tube, mixed gently, and then poured into a sterile petri plate (BD Falcon). Plates were allowed to solidify at room temperature. A 0.5 McFarland standard bacterial suspension was prepared, diluted 1:10 in CAMHB, and transferred to the wells of a stainless steel replicator block before stamping onto plates containing drug, resulting in 10^4 CFU/spot. After allowing the inoculum to dry on the surface of the agar, the plates were inverted, incubated aerobically at 35° C. for 20-24 hr, and inspected for growth.

[2] = tested on: Staphylococcus aureus MMX 3265, 3270, 3278, and 6312; conditions: for Cell counts (mean): 1 used if no colonies
Description: Each test agent stock solution was prepared at 100× the final desired test concentration for the spontaneous mutation frequency assay agar plates.
The drug/agar mixture was dispensed into sterile 150×15 mm plates (BD Falcon) to a volume of 50 mL in each plate. The target inoculum for each spontaneous mutation plate was at least 10^9 CFU. Plates were allowed to solidify at room temperature.
The inocula for the spontaneous mutation frequency assay were prepared by using sterile cotton swabs to harvest colonies from freshly grown isolates and preparing a dense cell suspension (approximately 1.70 on the turbidity meter) in 6 mL of CAMHB. The viable count of this suspension was determined by plating serial ten-fold dilutions onto MHA and taking the average of duplicate counts. For the spontaneous mutation assay, 0.25 mL of inoculum was spread onto the surface of duplicate 150×15 mm plates for each drug concentration tested, allowed to dry, and then the plates were inverted and incubated at 35° C. for 48 hr prior to counting viable colonies. The spontaneous mutation frequency was calculated using the following equation:
Spontaneous mutation frequency=average number of colonies on selected plates/total number of cells incubated onto each plate
If there were no colonies on the antibiotic selection plates, the spontaneous mutation frequency was reported as less than or equal to the mutation frequency that would have resulted from the presence of one colony (e.g. 1/total number of cells inoculated onto the plate).

[3] = tested on: Staphylococcus aureus ATCC 29213; experiment: MIC measured by agar dilution method, quality control strain; conditions: strain 100, MSSA QC strain
Description: as §1, §2, §3
In parallel experiments, a standard bacterium suspension with a […] turbidity of 0.5 is prepared as a standard inoculum for agar dilution analysis (10^4 CFU/point). […] In this step, the broths and drugs used in the spontaneous mutation analysis are used to confirm that the concentration of the drug stock solution can inhibit the growth of the standard inoculum. The quality of the levofloxacin stock solution is controlled by a standard inoculum and levofloxacin of 8-0.008 μg/mL, and separate agar dilution analysis is performed. […]

[4] = tested on: Staphylococcus aureus ATCC 29213; experiment: MIC measured by fluid broth microdilution method (quality control); conditions: ATCC29213
[5] = isolate 3265 LEV^R RIF^S, drug 0.5 μg/mL in plates (combination 0.5 each), inoculation 5.40E+09 CFU
[6] = isolate 3265 LEV^R RIF^S, drug 2 μg/mL in plates (combination 2 each), inoculation 5.40E+09 CFU
[7] = isolate 3265 LEV^R RIF^S, drug 8 μg/mL in plates (combination 8 each), inoculation 5.40E+09 CFU
[8] = isolate 3270 LEV^R RIF^S, drug 0.5 μg/mL in plates (combination 0.5 each), inoculation 5.30E+09 CFU
[9] = isolate 3270 LEV^R RIF^S, drug 2 μg/mL in plates (combination 2 each), inoculation 5.30E+09 CFU
[10] = isolate 3270 LEV^R RIF^S, drug 8 μg/mL in plates (combination 8 each), inoculation 5.30E+09 CFU
[11] = isolate 3278 LEV^S RIF^S, drug 0.5 μg/mL in plates (combination 0.5 each), inoculation 3.80E+09 CFU
[12] = isolate 3278 LEV^S RIF^S, drug 2 μg/mL in plates (combination 2 each), inoculation 3.80E+09 CFU
[13] = isolate 3278 LEV^S RIF^S, drug 8 μg/mL in plates (combination 8 each), inoculation 3.80E+09 CFU
[14] = isolate 6312 LEV^R RIF^S, drug 0.5 μg/mL in plates (combination 0.5 each), inoculation 3.90E+09 CFU
[15] = isolate 6312 LEV^R RIF^S, drug 2 μg/mL in plates (combination 2 each), inoculation 3.90E+09 CFU
[16] = isolate 6312 LEV^R RIF^S, drug 8 μg/mL in plates (combination 8 each), inoculation 3.90E+09 CFU

Structure (SMILES): CO[C@H]1/C=C/O[C@@]2(C)Oc3c(C)c(O)c4c(O)c(c(/C=N/N5CCN(C)CC5)c(O)c4c3C2=O)NC(=O)/C(C)=C\C=C\[C@H](C)[C@H](O)[C@@H](C)[C@@H](O)[C@@H](C)[C@H](OC(C)=O)[C@@H]1C [Rifampicin]
- MIC ([1]; strain 3085, LEV^S RIF^S): 0.015 µg/mL (≈ 0.0182 µM)
- MIC ([1]; strain 3090, LEV^R RIF^S): 0.008 µg/mL (≈ 0.00972 µM)
- MIC ([1]; strain 3094, LEV^R RIF^S): 0.015 µg/mL (≈ 0.0182 µM)
- MIC ([1]; strain 3098, LEV^S RIF^S): 0.015 µg/mL (≈ 0.0182 µM)
- MIC ([1]; strain 3265, LEV^R RIF^S): 0.008 µg/mL (≈ 0.00972 µM)
- MIC ([1]; strain 3266, LEVR RIFS): 0.008 µg/mL (≈ 0.00972 µM)
- MIC ([1]; strain 3270, LEV^R RIF^S): 0.015 µg/mL (≈ 0.0182 µM)
- MIC ([1]; strain 3271, LEV^R RIF^S): 0.015 µg/mL (≈ 0.0182 µM)
- MIC ([1]; strain 3277, LEV^S RIF^S): 0.015 µg/mL (≈ 0.0182 µM)
- MIC ([1]; strain 3278, LEV^S RIF^S): 0.015 µg/mL (≈ 0.0182 µM)
- MIC ([1]; strain 6312, LEV^R RIF^S): 0.015 µg/mL (≈ 0.0182 µM)
- MIC ([1]; strain 6313, LEV^R RIF^S): 0.015 µg/mL (≈ 0.0182 µM)
- MIC ([1]; strain 6315, LEV^R RIF^S): 0.015 µg/mL (≈ 0.0182 µM)
- MIC ([1]; strain 6498, LEV^R RIF^S): 0.015 µg/mL (≈ 0.0182 µM)
- MIC ([1]; strain 6501, LEV^R RIF^S): 0.015 µg/mL (≈ 0.0182 µM)
- MIC ([1]; strain 6505, LEV^R RIF^S): 0.015 µg/mL (≈ 0.0182 µM)
- MIC ([1]; strain 7771, LEV^R RIF^S): 0.008 µg/mL (≈ 0.00972 µM)
- MIC ([1]; strain 7772, LEV^S RIF^S): 0.015 µg/mL (≈ 0.0182 µM)
- MIC ([1]; strain 7773, LEV^R RIF^S): 0.015 µg/mL (≈ 0.0182 µM)
- MIC ([1]; strain 7774, LEV^R RIF^S): 0.015 µg/mL (≈ 0.0182 µM)
- MIC ([1]; strain 7775, LEV^R): 0.015 µg/mL (≈ 0.0182 µM)
- Cell counts (mean) ([2]; isolate 3265, drug 0.5 μg/mL): 55
- Cell counts (mean) ([2]; isolate 3265, drug 2 μg/mL): 29
- Cell counts (mean) ([2]; isolate 3265, drug 8 μg/mL): 36
- Cell counts plate A [2, 5]: 52
- Cell counts plate B [2, 5]: 57
- Mutation frequency [2, 5]: 1.01E−08
- Cell counts plate A [2, 6]: 27
- Cell counts plate B [2, 6]: 30
- Mutation frequency [2, 6]: 5.28E−09
- Cell counts plate A [2, 7]: 43
- Cell counts plate B [2, 7]: 29
- Mutation frequency [2, 7]: 6.67E−09
- Cell counts (mean) ([2]; isolate 3270, drug 0.5 μg/mL): 83
- Cell counts (mean) ([2]; isolate 3270, drug 2 μg/mL): 49
- Cell counts (mean) ([2]; isolate 3270, drug 8 μg/mL): 43
- Cell counts plate A [2, 8]: 93
- Cell counts plate B [2, 8]: 73
- Mutation frequency [2, 8]: 1.57E−08
- Cell counts plate A [2, 9]: 44
- Cell counts plate B [2, 9]: 53
- Mutation frequency [2, 9]: 9.15E−09
- Cell counts plate A [2, 10]: 43
- Cell counts plate B [2, 10]: 42
- Mutation frequency [2, 10]: 8.02E−09
- Cell counts (mean) ([2]; isolate 3278, drug 0.5 μg/mL): 47
- Cell counts (mean) ([2]; isolate 3278, drug 2 μg/mL): 29
- Cell counts (mean) ([2]; isolate 3278, drug 8 μg/mL): 34
- Cell counts plate A [2, 11]: 49
- Cell counts plate B [2, 11]: 44
- Mutation frequency [2, 11]: 1.22E−08
- Cell counts plate A [2, 12]: 20
- Cell counts plate B [2, 12]: 37
- Mutation frequency [2, 12]: 7.50E−09
- Cell counts plate A [2, 13]: 34
- Cell counts plate B [2, 13]: 33
- Mutation frequency [2, 13]: 8.82E−09
- Cell counts (mean) ([2]; isolate 6312, drug 0.5 μg/mL): 32
- Cell counts (mean) ([2]; isolate 6312, drug 2 μg/mL): 29
- Cell counts (mean) ([2]; isolate 6312, drug 8 μg/mL): 34
- Cell counts plate A [2, 14]: 34
- Cell counts plate B [2, 14]: 29
- Mutation frequency [2, 14]: 8.08E−09
- Cell counts plate A [2, 15]: 36
- Cell counts plate B [2, 15]: 22
- Mutation frequency [2, 15]: 7.44E−09
- Cell counts plate A [2, 16]: 38
- Cell counts plate B [2, 16]: 29
- Mutation frequency [2, 16]: 8.59E−09
- MIC [3]: 0.015 µg/mL (≈ 0.0182 µM)
- MIC [4]: 0.008 µg/mL (≈ 0.00972 µM)
